Assay in all cases: relative viability (nuclei count vs DMSO), 5 days (fraction); higher = more cells survive
Compound in assay [1]: COc1cc2c(Oc3ccc4[nH]c(C)cc4c3F)ncnc2cc1OCCCN1CCCC1 [Cediranib] + CS(=O)(=O)N1CCN(Cc2cc3nc(-c4cccc5[nH]ncc45)nc(N4CCOCC4)c3s2)CC1 [Pictilisib] (partner 1 µM)
The method, boiled down:
(§1)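 Relative viability was taken as the ratio of nuclei in treated wells to nuclei in vehicle wells. Lung cancer cell lines in 1536-well plates received compounds by pin tool one day after seeding, either one drug alone or a fixed anchor-drug dose plus five library-drug doses (not always all listed) in √10 steps. Nuclei were counted on 4× images after 5 days of treatment, and values are medians of duplicate plates.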

Compound in assay [2]: Nc1ncn([C@H]2C[C@H](O)[C@@H](CO)O2)c(=O)n1 [Decitabine] + COc1cccc2cc(-c3nc([C@H]4CC[C@H](C(=O)O)CC4)n4ncnc(N)c34)[nH]c12 [OSI-027] (partner 0.5 µM)
Summed up:
as §1

Compound in assay [3]: COc1cc2c(Oc3ccc4[nH]c(C)cc4c3F)ncnc2cc1OCCCN1CCCC1 [Cediranib] + CC(=O)Nc1cccc(-n2c(=O)n(C3CC3)c(=O)c3c(Nc4ccc(I)cc4F)n(C)c(=O)c(C)c32)c1 [Trametinib] (partner 0.02 µM)
The method, boiled down: as §1

Compound in assay [4]: Nc1ncn([C@H]2C[C@H](O)[C@@H](CO)O2)c(=O)n1 [Decitabine] + Cc1cc(Nc2cc(N3CCN(C)CC3)nc(Sc3ccc(NC(=O)C4CC4)cc3)n2)n[nH]1 [Tozasertib] (partner 0.1 µM)
Summed up: as §1

This passage reports relative viability results from the supplement of paper PMC10307832.

For the cell line UMC-11, the relative viability in assay [1] (first compound 0.04 µM) was determined as 1.01; in assay [1] (first compound 0.1265 µM), 0.316; in assay [1] (first compound 0.4 µM) it was 0.707; in assay [1] (first compound 1.265 µM), 0.466; in assay [1] (first compound 4 µM), 0.862; in assay [2] (first compound 0.04 µM) it was 0.46. The relative viability in assay [2] (first compound 0.1265 µM) was 0.0004; in assay [2] (first compound 0.4 µM), 0.411; in assay [2] (first compound 1.265 µM), 0.316; in assay [2] (first compound 4 µM) it was 0.363; in assay [3] (first compound 0.04 µM) it was 0.684; in assay [3] (first compound 0.1265 µM), 0.234. Besides, the relative viability was determined as 0.586 in assay [3] (first compound 0.4 µM); 0.394 in assay [3] (first compound 1.265 µM); 0.721 in assay [3] (first compound 4 µM); 0.202 in assay [4] (first compound 0.04 µM); 0.186 in assay [4] (first compound 0.1265 µM); 0.186 in assay [4] (first compound 0.4 µM). Besides, the relative viability in assay [4] (first compound 1.265 µM) came to 0.192; in assay [4] (first compound 4 µM), 0.183.
